Key:
MCF7 = test: Inhibition of adriamycin-resistant breast tumor line MCF-7/ADR-RE proliferation; assay type: functional; conditions: Homo sapiens
MDA-N = test: Inhibition of breast tumor lines(MDA-N) proliferation; assay type: functional; conditions: Homo sapiens
[1] = biological target: T1, Protein kinase C epsilon type (Homo sapiens, UniProt Q02156); test: Inhibition of Protein kinase C epsilon
T1 sequence (Q02156 whole entry): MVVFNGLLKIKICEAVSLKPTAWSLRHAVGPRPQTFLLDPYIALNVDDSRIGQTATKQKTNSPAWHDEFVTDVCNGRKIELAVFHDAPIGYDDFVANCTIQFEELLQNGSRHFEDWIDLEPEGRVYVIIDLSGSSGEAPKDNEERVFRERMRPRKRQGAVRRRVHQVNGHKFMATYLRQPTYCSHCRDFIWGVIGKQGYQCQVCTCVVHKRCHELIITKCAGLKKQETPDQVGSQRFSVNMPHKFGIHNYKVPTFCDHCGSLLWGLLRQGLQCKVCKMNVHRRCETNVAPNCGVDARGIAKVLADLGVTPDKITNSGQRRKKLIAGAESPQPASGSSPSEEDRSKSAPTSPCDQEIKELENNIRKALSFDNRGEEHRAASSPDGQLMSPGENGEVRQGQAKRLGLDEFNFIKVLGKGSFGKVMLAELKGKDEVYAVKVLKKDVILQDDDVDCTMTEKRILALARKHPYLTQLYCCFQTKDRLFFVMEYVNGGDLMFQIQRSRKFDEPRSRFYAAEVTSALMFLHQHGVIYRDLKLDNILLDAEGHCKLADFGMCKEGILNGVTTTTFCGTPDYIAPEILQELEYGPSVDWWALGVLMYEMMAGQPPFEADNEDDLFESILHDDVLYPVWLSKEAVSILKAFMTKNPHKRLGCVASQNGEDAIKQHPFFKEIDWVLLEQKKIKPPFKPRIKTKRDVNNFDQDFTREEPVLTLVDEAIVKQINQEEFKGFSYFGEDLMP

[2] = biological target: Protein kinase C beta type (Homo sapiens, UniProt P05771); test: Inhibition of protein kinase C beta
Sequence of Protein kinase C beta type (P05771 whole entry): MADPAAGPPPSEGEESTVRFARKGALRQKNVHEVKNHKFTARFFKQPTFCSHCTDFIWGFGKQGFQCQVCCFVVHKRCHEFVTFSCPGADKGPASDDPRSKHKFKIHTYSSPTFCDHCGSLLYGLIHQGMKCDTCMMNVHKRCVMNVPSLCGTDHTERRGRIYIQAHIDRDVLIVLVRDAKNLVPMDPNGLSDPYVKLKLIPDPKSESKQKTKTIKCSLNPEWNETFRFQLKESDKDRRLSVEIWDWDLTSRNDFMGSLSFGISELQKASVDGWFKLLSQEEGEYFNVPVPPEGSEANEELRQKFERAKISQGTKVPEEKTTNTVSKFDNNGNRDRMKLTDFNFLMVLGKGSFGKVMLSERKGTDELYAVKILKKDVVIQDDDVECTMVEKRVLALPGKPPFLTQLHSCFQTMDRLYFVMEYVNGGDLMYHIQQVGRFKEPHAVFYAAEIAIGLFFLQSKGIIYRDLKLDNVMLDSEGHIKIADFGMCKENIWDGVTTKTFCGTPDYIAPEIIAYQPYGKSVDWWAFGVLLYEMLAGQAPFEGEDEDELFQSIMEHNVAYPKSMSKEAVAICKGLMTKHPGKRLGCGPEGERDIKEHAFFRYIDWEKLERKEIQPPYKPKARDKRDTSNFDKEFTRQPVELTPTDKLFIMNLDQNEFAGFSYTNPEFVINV

Row | Structure (SMILES) | GI50 (MCF7) [nM] | GI50 (MDA-N) [nM] | IC50 [1] [nM] | IC50 [2] [nM]
1 | N=C(N)SCCCn1cc(C2=CC(=O)NC2=O)c2ccccc21 | 20 | – | – | –
2 | N=C(N)SCCCn1c(-c2cc3ccccc3s2)c(C2=CC(=O)NC2=O)c2ccccc21 | 20 | < 10 | 10 | 3
3 | CN(C)CCCn1c(-c2cc3ccccc3s2)c(C2=CC(=O)NC2=O)c2ccccc21 | 100 | – | – | –

Reference: ChEMBL document CHEMBL1128142, “2-aryl-indolyl maleimides - novel and potent inhibitors of protein kinase C” (Bioorg Med Chem Lett, 1995)
